Test results taken from PubChem BioAssay (NCI).
Several values for one entry are separate records, joined by “and”; a condition that tells them apart may be missing. Equal values may be shown once.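 A five-concentration, 48-hour dose response in 96-well plates underlies each endpoint, interpolated linearly between surrounding concentrations. GI50 is the concentration that inhibits growth by half. TGI: concentration producing complete growth inhibition.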

Experiments:
Experiment in all cases: NCI-60 cell line screen, 48 h
CAKI-1 renal = system: CAKI-1 renal
CCRF-CEM leukemia = system: CCRF-CEM leukemia
COLO 205 colon = system: COLO 205 colon
MDA-MB-435 = system: MDA-MB-435
MOLT-4 leukemia = system: MOLT-4 leukemia
NCI-H460 lung = system: NCI-H460 lung
NCI-H522 lung = system: NCI-H522 lung
OVCAR-3 ovarian = system: OVCAR-3 ovarian
RPMI-8226 leukemia = system: RPMI-8226 leukemia
SK-OV-3 ovarian = system: SK-OV-3 ovarian

SMILES | GI50 (CAKI-1 renal) | TGI (CAKI-1 renal) [µM] | GI50 (CCRF-CEM leukemia) | TGI (CCRF-CEM leukemia) [µM] | GI50 (COLO 205 colon) | TGI (COLO 205 colon) [µM] | GI50 (MDA-MB-435) | TGI (MDA-MB-435) [µM] | GI50 (MOLT-4 leukemia) | TGI (MOLT-4 leukemia) | GI50 (NCI-H460 lung) | TGI (NCI-H460 lung) [µM] | GI50 (NCI-H522 lung) [µM] | TGI (NCI-H522 lung) [µM] | GI50 (OVCAR-3 ovarian) | TGI (OVCAR-3 ovarian) [µM] | GI50 (RPMI-8226 leukemia) | TGI (RPMI-8226 leukemia) [µM] | GI50 (SK-OV-3 ovarian) | TGI (SK-OV-3 ovarian) [µM]
COc1cc(Cl)cc(-c2nn(C(=O)NCCN3CCOCC3)cc2-c2ccncc2)c1 | 2.49 µM | 18.7 | 5.91 µM | > 100 | 3.16 µM | 11.2 | 0.604 µM | 3.61 | 3.78 µM | > 100 µM | 3.81 µM | > 100 | 3.38 | > 100 | 2.41 µM | 7.11 | 7.38 µM | > 100 | 3.75 µM | 19.7
CCN(Cc1ccc(F)c(F)c1)c1ccc(CO)c(Cl)c1 | 3.92 µM | 27.5 | 15.1 µM | 47 | 2.32 µM | 7.48 | 17.9 µM | 37.6 | 16.8 µM | 47.6 µM | 0.253 µM | 10.7 | 13.2 | 30.2 | 0.395 µM | 2.25 | 2.44 µM | 28.9 | 5.94 µM | 19.3
COc1ccc(C(=O)/C=C/c2ccc(/C=C/c3cc(OC)c(OC)c(OC)c3)cc2)cc1 | 14.6 µM | > 100 | 4.15 µM | > 100 | 13.7 µM | > 100 | 4.28 µM | 47.7 | 3.49 µM | > 100 µM | 8.65 µM | > 100 | 3.3 | 30.7 | 3.92 µM | 14.3 | 2.57 µM | 8.54 | 15.6 µM | 64.5
CCCCCn1c(=N)n(CC(O)COc2cccc(C)c2)c2ccccc21 (stereo not drawn) | 6.95 µM | 21.2 | 3.12 µM | 15.2 | 1.93 µM | 3.62 | 3 µM | 11.2 | 3.08 µM | 11.1 µM | 4.62 µM | 17.3 | 5.7 | 20 | 8 µM | 21.2 | 2.09 µM | 5.2 | 11.8 µM | 24.2
Cc1c(C(=O)/C=C/c2csc3ccccc23)[n+](=O)c2ccccc2n1[O-] | 1.42 µM | 3.7 | 2.42 µM | 7.56 | – | – | 1.73 µM | 3.26 | 2.71 µM | 7 µM | 1.41 µM | 2.71 | 1.78 | 3.88 | 1.32 µM | 2.62 | 1.78 µM | 4.91 | 1.79 µM | 4.95
CN1CCN(CCc2cccc(C(=O)c3cnn(-c4ccc(F)cc4)c3N)c2)CC1 | > 25 µM | > 25 | > 25 µM | > 25 | > 25 µM | > 25 | > 25 µM | > 25 | > 25 µM | > 25 µM | > 25 µM | > 25 | > 25 | > 25 | > 25 µM | > 25 | > 25 µM | > 25 | > 25 µM | > 25
C=C1C(=O)O[C@H]2[C@H]1CC/C(COC(=O)NCc1ccccc1OC)=C\CC[C@@]1(C)O[C@@H]21 | 1.38 µM | 2.77 | 0.482 µM | 4.7 | 1.75 µM | 3.72 | 1.7 µM | 4.86 | 2.53 µM | 6.13 µM | 3.73 µM | 14.6 | 0.351 | 1.92 | 0.872 µM | 2.42 | 1.77 µM | 6.24 | 13.5 µM | 26.8
O=CNc1c(Cl)cc2c(c1Cl)Cc1cc([N+](=O)[O-])ccc1-2 | 8.34 µM | > 91.2 | 0.445 µM | > 100 | 4.76 µM | 23.7 | 1.46 µM | 3.63 | 2.13 µM | > 100 µM | 2.88 µM | 39.5 | 3.05 | > 29.1 | 1.34 µM | 8.87 | 2.59 µM | > 100 | 9.92 µM | 41.5
O=C(c1ccc(F)cc1)c1cccc(C(=O)c2ccc(F)cc2)n1 | – | > 100 | – | > 100 | – | > 100 | – | > 100 | – | > 100 µM | – | > 100 | – | 71.5 | – | > 100 | – | > 100 | – | 52.5
COC(=O)[C@H](Cc1cn(C)cn1)NC(=O)[C@H](Cc1c[nH]c2ccccc12)NC(=O)Nc1cc(C(F)(F)F)cc(C(F)(F)F)c1 | > 10 µM | > 10 | > 10 µM | > 10 | > 10 µM | > 10 | > 10 µM | > 10 | > 10 µM | > 10 µM | > 10 µM | > 10 | > 10 | > 10 | > 10 µM | > 10 | > 10 µM | > 10 | > 10 µM | > 10
COc1cc(C2c3cc4c(cc3OC(N3CCCC3)C2C)OCO4)cc(OC)c1OC (stereo not drawn) | – | 12 | – | > 51.9 | – | 1.03 | – | 1.84 | – | > 18.6 µM | – | 14.5 | – | 1.55 | – | 0.601 | – | > 19.9 | – | 12.2
CC1SC(c2c(Cl)cccc2Cl)N(NC(=O)c2[nH]c3ccc(F)cc3c2-c2ccccc2)C1=O (stereo not drawn) | 1.83 µM | 4.85 | 4.79 µM | 42.5 | 2.69 µM | 7.48 | 5.01 µM | > 100 | 13.2 µM | 64.7 µM | 2.03 µM | 3.9 | 1.87 | 5.83 | 1.76 µM | 3.45 | 5.59 µM | > 100 | 1.95 µM | 4.2
CC(C)(C)C[C@H]1NC(C(=O)NCC[C@H](O)CO)[C@H](c2cccc(Cl)c2)[C@@]12C(=O)Nc1cc(Cl)c(F)cc12 (stereo partly drawn) | 3.84 µM | 18.1 | 17.7 µM | 45.9 | 16.1 µM | 30.7 | 14.1 µM | 29.6 | 2.19 µM | 8.22 µM | 2.45 µM | 14.6 | 14.3 | 30 | 14.6 µM | 28.1 | 12.8 µM | 38.4 | 16.3 µM | 34.9
COC(=O)/C=C/C=C(c1ccccc1)c1ccccc1 | 3.05 µM | 10.4 | 6.48 µM | > 100 | 3.57 µM | 13.9 | 1.63 µM | 4.37 | 14.2 µM | > 100 µM | 3.67 µM | 15.2 | 5.88 | 78.1 | 2.4 µM | 8.24 | 6.36 µM | 95.5 | 5.93 µM | 48.9
CC(C)NC[C@@H](C(=O)N1CCN(c2ncnc3c2[C@H](C)C[C@H]3O)CC1)c1ccc(Cl)cc1 | > 10 µM and 36.1 µM | > 100 | 1.57 µM and 1.24 µM | > 100 | 3.48 µM and 7.6 µM | > 100 | > 10 µM and 20.9 µM | > 100 | 0.676 µM and 0.747 µM | > 10 µM and 73.9 µM | 1.47 µM and 2.33 µM | > 100 | > 100 | > 100 | > 10 µM and 12.3 µM | > 100 | > 10 µM and 38.1 µM | > 100 | 0.596 µM and 0.783 µM | > 100
CCN(CC)c1ccc(C(=C2C=CC(=[N+](CC)Cc3cccc(S(=O)(=O)O)c3)C=C2)c2ccc(N(CC)Cc3cccc(S(=O)(=O)O)c3)cc2)cc1 | 24 µM | > 100 | 6.59 µM | 98.5 | 1.87 µM | 3.83 | 4.07 µM | > 100 | 11.1 µM | > 89.7 µM | 3.93 µM | 39.1 | 7.88 | > 79.2 | 5.21 µM | 37.4 | 3.32 µM | > 51.1 | 5.04 µM | 27.1
COc1ccc(-c2ccc(/C=N/n3c(COc4ccc(Cl)cc4Cl)n[nH]c3=S)o2)c([N+](=O)[O-])c1 | 17.3 µM | 36.9 | 16.3 µM | 42 | 32.9 µM | > 100 | 18.1 µM | 38 | 14 µM | 38.9 µM | 18 µM | 46.3 | 29.7 | > 100 | 16.1 µM | 46.3 | 11.7 µM | 43.7 | 23.6 µM | > 100
O=C(CC(=O)CC(O)(C(F)(F)F)C(F)(F)F)CC(O)(C(F)(F)F)C(F)(F)F | – | > 10 | – | > 10 | – | > 10 | – | > 10 | – | > 10 µM | – | > 10 | – | > 10 | – | > 10 | – | > 10 | – | > 10
N#Cc1cnc2cc(OC[C@H](O)CO)c(NC(=O)CC3CSSC3)cc2c1Nc1ccc(OCc2cccc(F)c2)c(Cl)c1 | 10.1 µM | 27.6 | 0.0923 µM | 0.251 | 0.883 µM | 1.81 | 0.272 µM | 0.878 | 0.0931 µM | 0.209 µM | 0.126 µM | 0.298 | 0.729 | 1.59 | 0.514 µM | 1.24 | 1.09 µM | 2.49 | 0.748 µM | 1.48
